Assay results: patent US10111950B2, “Modified glycolipids and methods of making and using the same” (Vaccinex, Inc., priority 2013, dated 2018)

Tests used:
[1] = tested on: iNKT hybridoma DN3A4-1.2 with plate bound mCD1d; experiment: Plate bound mCD1d:glycolipid complexes with and without UV activation, iNKT DN3A4-1.2 hybridoma stimulation assay (IL-2 ELISA); type: cell-based, murine; settings: for iNKT stimulation post-dissociation (IL-2 ELISA): after 3 days dissociation, non-crosslinked mCD1d complexes (UV state not stated for 7DW8-5); for iNKT hybridoma stimulation following UV crosslinking (IL-2 ELISA): UV crosslinked 365 nm 1 hr
Protocol: (§1) The ligand binding affinity of plate bound mCD1d was detected by iNKT DN3A4-1.2 hybridoma stimulation assay. mCD1d (10 μg/ml) was loaded with glycolipids (5 μM) overnight at 25° C. ELISA plates were coated with mCD1d:GC complexes (2.5 μg/ml, 30 μl/well) for 12-18 hours at 4° C. in PBS pH 8.2. Supernatant was then removed and the complexes were washed three times with PBS to remove any unbound glycolipid and protein. For those complexes that underwent UV activation, UV crosslinking was performed in solution (30 μl/well PBS) and at a fixed wavelength of 365 nm from a UV lamp (RAD-FREE long wave UV lamp, Schleicher & Schuell). The UV lamp was placed one inch from the sample and the sample was allowed to sit on ice for 1 hr. Supernatant was then removed and the complexes were washed three times with PBS to remove any unbound glycolipid and protein.

[2] = biological target: T1, soluble recombinant mCD1d (Mus musculus, UniProt P11609); experiment: Direct comparison of DB12-8 and 7DW8-5 complexes with soluble recombinant mCD1d, L363 ELISA; type: binding, murine; settings: for affinity to CD1d, complex detected by L363 ELISA: mCD1d 10 μg/ml, glycolipid 5 μM
T1 construct: A soluble recombinant mCD1d protein (10 μg/ml) was loaded with glycolipids
T1 sequence (P11609 22-305 limits assumed): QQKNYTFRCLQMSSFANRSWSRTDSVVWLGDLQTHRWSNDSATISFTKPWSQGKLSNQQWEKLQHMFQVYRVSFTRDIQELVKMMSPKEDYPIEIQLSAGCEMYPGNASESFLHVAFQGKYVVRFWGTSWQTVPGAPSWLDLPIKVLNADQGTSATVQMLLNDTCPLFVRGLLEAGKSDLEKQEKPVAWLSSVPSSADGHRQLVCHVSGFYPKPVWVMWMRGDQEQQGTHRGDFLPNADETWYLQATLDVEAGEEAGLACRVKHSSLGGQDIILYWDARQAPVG
T1 sequence (P01887 21-119 partner): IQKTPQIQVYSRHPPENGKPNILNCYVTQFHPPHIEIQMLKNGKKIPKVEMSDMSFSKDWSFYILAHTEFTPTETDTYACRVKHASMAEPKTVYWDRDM
Protocol: (§2) The ligand binding affinity of plate bound mCD1d was measured by ELISA using mAb L363 to detect murine CD1d/αGalCer complexes. ELISA plates were coated with mCD1d (10 μg/ml, 30 μl/well) overnight at 4° C. in PBS pH 8.2. Supernatant was then removed along with any unbound protein. Glycolipids (5 μM, 30 μl/well) were loaded and allowed to incubate overnight at 25° C. Supernatant was again removed and the complexes were washed three times with PBS to remove any unbound glycolipid. For those complexes that underwent UV activation, UV crosslinking was performed in solution (30 μl/well PBS) and at a fixed wavelength of 365 nm from a UV lamp (RAD-FREE long wave UV lamp, Schleicher & Schuell). The UV lamp was placed one inch from the sample and the sample was allowed to sit on ice for 1 hr.
as §1
A soluble recombinant mCD1d protein (10 μg/ml) was loaded with glycolipids (5 μM) overnight at 25° C. in PBS pH8.2 with 0.05% tyloxapol. The mCD1d:GC complexes (10 μg/ml, 30 μl/well) were coated onto the high binding ELISA plates, overnight at 4° C. UV exposure and incubation to allow dissociation over 3 days was performed as described in Examples 6 and 7.

[3] = biological target: T2, plate bound mCD1d (Mus musculus, UniProt P11609); experiment: Ligand binding to plate bound mCD1d with and without UV activation, ELISA using mAb L363; parameters: species or system murine; settings: for dissociation of CD1d:glycolipid complex after 3 days (L363 ELISA): 3 days in PBS+0.05% Triton X-100 at 25° C.; for CD1d/glycolipid complex formation detected by mAb L363 ELISA: plate bound mCD1d 10 μg/ml, glycolipid 5 μM
T2 construct: recombinant soluble murine CD1d (mCD1d) was diluted to 400 μg/ml in PBS pH 7.2
T2 sequence (P11609 22-305 limits assumed): T1 sequence (P11609 22-305 limits assumed)
T2 sequence (P01887 21-119 partner): T1 sequence (P01887 21-119 partner)
Protocol: as §2

[4] = tested on: mCD1d.CEA fusion protein; experiment: Direct comparison of DB12-8 and 7DW8-5 complexes with mCD1d.CEA fusion protein, L363 ELISA; type: binding, murine; settings: for affinity to CD1d, complex detected by L363 ELISA: mCD1d.CEA 10 μg/ml, glycolipid 5 μM
Protocol: as §2, §1
mCD1d.CEA (10 μg/ml), a recombinant mCD1d protein genetically fused with a single chain Fv antibody fragment specific for the tumor associated antigen CEA, was loaded with glycolipids (5 μM) overnight at 25° C. in PBS pH8.2 with 0.05% tyloxapol. The mCD1d.CEA:GC complexes (10 μg/ml, 30 μl/well) were coated onto wells of high binding ELISA 96 well plates overnight at 4° C. UV exposure and incubation to allow dissociation over 3 days were performed as described in Examples 6 and 7.
A scale up of the complex formation in solution was performed using a 10-fold increased concentration of protein and glycolipid and the results are shown in FIG. 9C-9D. mCD1d.CEA (100 μg/ml) was loaded with DB12-8 (50 μM respectively) overnight at 25° C. in PBS pH8.2 with 0.05% tyloxapol. DB12-8:mCD1d.CEA complexes were diluted down to 10 μg/ml and were coated onto the high binding ELISA plates (30 μl/well), overnight at 4° C. UV exposure and incubation to allow dissociation over 3 days were performed as described in Examples 6 and 7.

[5] = tested on: iNKT hybridoma DN3A4-1.2 with murine CD1d-expressing antigen presenting cells; experiment: iNKT hybridoma stimulation (IL-2 secretion) with mCD1d expressing BMDCs; type: cell-based, mouse; settings: BMDCs from C57BL/6 mice, BPGC 5 to 0.01 μg/ml for 3 hrs, hybridoma 18 hrs
Protocol: The activated natural killer cells were calculated based on those secreting IL-2. Specifically, bone marrow-derived dendritic cells (BMDCs) from C57BL/6 mice (10,000 cells in 100 μl culture medium) were plated in wells of a 96 well tissue culture plate and allowed to adhere to the plates for 30 minutes at 37° C. The cultures were then exposed to varying BPGC concentrations ranging between 5 and 0.01 μg/ml in 100 μl for 3 hrs at 37° C. Glycolipids not taken up by BMDCs were removed by washing with culture medium. To detect the BPGC presentation by CD1d, iNKT hybridoma DN3A4-1.2 (5000 cells in 100 μl volume) was added and the stimulation was detected by the level of IL-2 secreted in the supernatant following 18 hrs of incubation at 37° C.

[6] = tested on: iNKT hybridoma DN3A4-1.2 with human CD1d transfected HeLa cells; experiment: iNKT hybridoma stimulation (IL-2 secretion) with hCD1d expressing HeLa cells; type: cell-based; settings: BPGC 5 to 0.01 μg/ml for 3 hrs, hybridoma 18 hours
Protocol: The activated natural killer cells were again calculated based on those secreting IL-2. Specifically, plate bound human CD1d transfected HeLa cells (10,000 cells in 100 μl medium) were plated in a 96 well tissue culture plate and allowed to adhere to the plates for 30 minutes at 37° C. Adherent HeLa cells were treated with varying BPGC concentrations ranging between 5 and 0.01 μg/ml in 100 μl for 3 hrs at 37° C. Glycolipid not taken up by cells was removed by washing with medium. To detect the BPGC presentation by CD1d, iNKT hybridoma DN3A4-1.2 (5000 cells in 100 μl volume) was added and the stimulation was detected by the level of IL-2 secreted in the supernatant following incubation at 37° C. for 18 hours.

[7] = biological target: T3, mouse CD1d (Mus musculus, UniProt P11609); experiment: Tryptophan fluorescence quenching of mCD1d by glycolipid binding; settings: protein 0.1 μM, glycolipid 4 μM, 25° C., excited at λ295
T3 construct: recombinant soluble murine CD1d (mCD1d) was diluted to 400 μg/ml in PBS pH 7.2
T3 sequence (P11609 22-305 limits assumed): T1 sequence (P11609 22-305 limits assumed)
T3 sequence (P01887 21-119 partner): T1 sequence (P01887 21-119 partner)
Protocol: The effect of glycolipid binding to mouse CD1d was tested. Fluorescence quenching of mCD1d due to glycolipid binding was measured using a Horibo Jobin Yvon Fluoromax-3 fluorescent spectrophotometer and the data were analyzed using FluorEssence software. Protein (0.1 μM) was mixed either with glycolipid antigens (at 4 μM) or the ligand vehicle in a quartz cuvette 1 cm wide, to a final volume of 100 μl and placed in the spectrometer already set at 25° C. The samples were excited at λ295 and emission measured from […] to λ400.

Structure (SMILES) | iNKT stimulation post-dissociation (IL-2 ELISA) [1] | dissociation after 3 days (L363 ELISA signal) ([2]; UV exposure at 365 nm) | affinity to CD1d, complex detected by L363 ELISA [2] | dissociation after 3 days (L363 ELISA signal) ([2]; non UV-crosslinked state) | dissociation of CD1d:glycolipid complex after 3 days (L363 ELISA) ([3]; UV irradiated 365 nm 1 hr) | dissociation of CD1d:glycolipid complex after 3 days (L363 ELISA) ([3]; not UV irradiated) | dissociation after 3 days (L363 ELISA signal) ([4]; UV exposure at 365 nm) | affinity to CD1d, complex detected by L363 ELISA [4] | dissociation after 3 days (L363 ELISA signal) ([4]; non UV-crosslinked state) | iNKT hybridoma stimulation following UV crosslinking (IL-2 ELISA) [1] | CD1d/glycolipid complex formation detected by mAb L363 ELISA [3] | iNKT stimulation, level of IL-2 secreted in the supernatant [5] | iNKT stimulation, level of IL-2 secreted in the supernatant [6] | fluorescence quenching of mCD1d due to glycolipid binding [7] | binding to CD1d ([1]; following UV crosslinking) | reduction in OD450 after 3 days ([4]; 10-fold scale up (mCD1d.CEA 100 μg/ml, DB12-8 50 μM), UV-crosslinked samples) | decrease in OD450 after 3 days incubation ([4]; 10-fold scale up (mCD1d.CEA 100 μg/ml, DB12-8 50 μM), non-crosslinked complexes) [%] | L363 ELISA signal following UV-crosslinking ([4]; mCD1d.CEA complex)
CCCCCCCCCCCCCC[C@@H](O)[C@@H](O)[C@H](CO[C@H]1O[C@H](CO)[C@H](O)[C@H](O)[C@H]1O)NC(=O)CCCCCCCCCCc1ccc(F)cc1 [Compound 7DW8-5, reference compound] | did not stimulate iNKT post-dissociation | almost complete loss of signal | showed affinity to CD1d | almost complete loss of signal | dissociated after 3 days | dissociated after 3 days | almost complete loss of signal | showed affinity to CD1d | almost complete loss of signal |  |  |  |  |  |  |  |  | 
CCCCCCCCCCCCCC[C@@H](O)[C@@H](O)[C@H](COC1OC(CO)C(O)C(O)C1O)NC(=O)CCCCCCCCCOCc1cccc(C(=O)c2ccccc2)c1 (some centres unmarked) [DB11-2] | some, albeit reduced, iNKT stimulation even after dissociation |  |  |  | no significant dissociation |  |  |  |  | second best stimulator | highest levels of immunoreactive complex formation | stimulated iNKTs most efficiently at a low concentration of 0.1 μg/ml | stimulatory toward iNKT cells |  |  |  |  | 
CCCCCCCCCCCCCC[C@@H](O)[C@@H](O)[C@H](COC1OC(CO)C(O)C(O)C1O)NC(=O)CCCCCCCCOCc1cccc(C(=O)c2ccccc2)c1 (some centres unmarked) [DB12-7] | some, albeit reduced, iNKT stimulation even after dissociation |  |  |  |  |  |  |  |  |  |  | lower but still significant IL-2 secretion |  | greatest quenching |  |  |  | 
CCCCCCCCCCCCCC[C@@H](O)[C@@H](O)[C@H](COC1OC(CO)C(O)C(O)C1O)NC(=O)CCCCCCCCCCOCc1cccc(C(=O)c2ccccc2)c1 (some centres unmarked) [DB12-8] | some, albeit reduced, iNKT stimulation even after dissociation | no dissociation was observed | showed affinity to CD1d | dissociated almost completely | no significant dissociation |  | no dissociation was observed | showed affinity to CD1d | almost completely dissociated | stimulated iNKT hybridoma better than other glycolipids | highest levels of immunoreactive complex formation |  | stimulatory toward iNKT cells |  | bound efficiently to CD1d | no detectable reduction in OD450 | ~75 | increases significantly
CCCCCCCCCCCCCC[C@@H](O)[C@@H](O)[C@H](COC1OC(CO)C(O)C(O)C1O)NC(=O)CCCCCCCCCCCOCc1cccc(C(=O)c2ccccc2)c1 (some centres unmarked) [DB12-9] | some, albeit reduced, iNKT stimulation even after dissociation |  |  |  | no significant dissociation |  |  |  |  |  | highest levels of immunoreactive complex formation |  |  |  |  |  |  | 
CCCCCCCCCCCCCCCCCCCCCCCCCC(=O)N[C@@H](CO[C@H]1O[C@H](CO)[C@H](O)[C@H](O)[C@H]1O)[C@H](O)[C@H](O)CCCCCCCCCCCCCC [KRN7000, (2S,3S,4R)-1-O-(α-D-galactopyranosyl)-N-hexacosanoyl-2-amino-1,3,4-octadecanetriol, reference compound] |  |  |  |  | dissociated after 3 days | dissociated after 3 days |  |  |  |  |  |  |  |  |  |  |  | 
